Test results published in US6525059B1, “Substituted pyrazoles as p38 kinase inhibitors” (G. D. Searle & Company, priority 1998, dated 2003).
pIC50: −log10 of the molar value.

How the values were obtained:
TNF-α = test: LPS stimulation of TNF production by U937 cells; format: cell-based, human; details: for inhibition at 1 µM: U-937, @ 1.0 uM, read-out: U937 Cell % inhib @ conc.
How it was run: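 PMA-differentiated human U937 cells (20 ng/ml PMA, 24 h, then 24-48 h rest) at 2 million cells/ml, 0.1% DMSO final, stimulated with E. coli LPS (100 ng/ml final) for 4 h at 37° C. TNF-α in medium measured by ELISA; IC50 in μM.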

human p38 kinase alpha = biological target: T1, human p38 kinase alpha (Homo sapiens, UniProt Q16539); test: p38 kinase in vitro assay, phosphorylation of biotinylated PHAS-I with gamma 32P-ATP; format: biochemical; details: read-out: P38 alpha kinase IC50
T1 construct: The coding region of the human p38a cDNA was obtained by PCR-amplification from RNA isolated from the human monocyte cell line THP.1; GST (N); made in house; host or cells: E. coli DH10B
T1 sequence (Q16539 whole entry): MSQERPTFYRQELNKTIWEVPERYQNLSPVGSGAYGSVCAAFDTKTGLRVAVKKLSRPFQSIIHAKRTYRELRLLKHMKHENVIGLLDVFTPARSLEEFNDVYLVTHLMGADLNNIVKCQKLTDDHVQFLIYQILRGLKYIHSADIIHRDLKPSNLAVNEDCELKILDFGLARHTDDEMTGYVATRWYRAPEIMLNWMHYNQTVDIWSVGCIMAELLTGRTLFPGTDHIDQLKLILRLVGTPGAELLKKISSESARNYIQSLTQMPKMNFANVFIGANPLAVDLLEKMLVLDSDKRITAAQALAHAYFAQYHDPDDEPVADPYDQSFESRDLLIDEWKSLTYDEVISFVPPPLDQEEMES
How it was run: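 Radiometric filter-capture read-out: streptavidin plates trap biotin-PHAS-I labelled by activated (MKK6) human p38α from γ-32P-ATP. Buffer 25 mM HEPES pH 7.5, 10 mM magnesium acetate, 50 μM cold ATP; reactions 1 h or overnight at 30 °C; inhibitors 10-fold dilutions 100 to 0.001 μM, triplicates, 1% DMSO.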

Row | SMILES | pIC50 (human p38 kinase alpha) | pIC50 (TNF-α; Homo sapiens, U-937, TNF production, LPS-stimulated human U937 cells, read-out: U937 Cell IC50) | inhibition at 1 µM (TNF-α; Homo sapiens) [%] | U937 Cell % inhib @ conc. (TNF-α; @ 1.0 uM) [% @ 1.0 uM]
1 | O=S(=O)(NCc1[nH]nc(-c2ccc(F)cc2)c1-c1ccncc1)c1cc(S(=O)(=O)c2ccccc2)cs1 [Example B-0259] | 6.46 |  | 58 | 
2 | Cc1ccc(S(C)(=O)=O)cc1S(=O)(=O)NCc1[nH]nc(-c2ccc(F)cc2)c1-c1ccncc1 [Example B-0260] | 6.25 |  | 23 | 
3 | CS(=O)(=O)c1ccccc1S(=O)(=O)NCc1[nH]nc(-c2ccc(F)cc2)c1-c1ccncc1 [Example B-0261] | 6.31 |  | 23 | 
4 | O=S(=O)(NCc1[nH]nc(-c2ccc(F)cc2)c1-c1ccncc1)c1ccc(-c2ccon2)s1 [Example B-0262] | 6.39 |  | 89 | 
5 | O=S(=O)(NCc1[nH]nc(-c2ccc(F)cc2)c1-c1ccncc1)c1ccc(S(=O)(=O)c2ccccc2)s1 [Example B-0263] | 6.21 |  | 64 | 
6 | CN(C)S(=O)(=O)NCc1[nH]nc(-c2ccc(F)cc2)c1-c1ccncc1 [Example B-0264] | 6.85 |  | 18 | 
7 | O=S(=O)(NCc1[nH]nc(-c2ccc(F)cc2)c1-c1ccncc1)c1cccc2cnccc12 [Example B-0265] | 6.04 |  | 24 | 
8 | Cn1cnc(S(=O)(=O)NCc2[nH]nc(-c3ccc(F)cc3)c2-c2ccncc2)c1 [Example B-0266] | 6.60 |  | 24 | 
9 | Cc1ccccc1C(=O)NCc1[nH]nc(-c2ccc(F)cc2)c1-c1ccncc1 [Example B-0267] | 6.32 |  | 11 | 
10 | O=C(NCc1[nH]nc(-c2ccc(F)cc2)c1-c1ccncc1)c1ccc(Cl)cc1 [Example B-0268] | 5.47 |  | 19 | 
11 | Cc1ccc(C(=O)NCc2[nH]nc(-c3ccc(F)cc3)c2-c2ccncc2)cc1 [Example B-0269] | 5.01 |  | 19 | 
12 | O=C(NCc1[nH]nc(-c2ccc(F)cc2)c1-c1ccncc1)c1cccc(C(F)(F)F)c1 [Example B-0270] | 5.24 |  | 13 | 
13 | O=C(NCc1[nH]nc(-c2ccc(F)cc2)c1-c1ccncc1)c1cc2ccccc2s1 [Example B-0271] | 5.12 |  | 12 | 
14 | CC(C)c1cc(C(C)C)c(C(=O)NCc2[nH]nc(-c3ccc(F)cc3)c2-c2ccncc2)c(C(C)C)c1 [Example B-0272] | 5.74 |  | 48 | 
15 | O=C(NCc1[nH]nc(-c2ccc(F)cc2)c1-c1ccncc1)c1cc(Cl)cc(Cl)c1 [Example B-0273] | 5.30 |  | 13 | 
16 | N#Cc1cccc(C(=O)NCc2[nH]nc(-c3ccc(F)cc3)c2-c2ccncc2)c1 [Example B-0274] | 5.57 |  | 25 | 
17 | O=C(NCc1[nH]nc(-c2ccc(F)cc2)c1-c1ccncc1)c1cccc2ccccc12 [Example B-0275] | 5.57 |  | 33 | 
18 | O=C(NCc1[nH]nc(-c2ccc(F)cc2)c1-c1ccncc1)c1ccc(F)c(F)c1 [Example B-0276] | 5.90 |  | 26 | 

Row | SMILES | pIC50 (human p38 kinase alpha) | pIC50 (TNF-α; Homo sapiens, U-937, TNF production, LPS-stimulated human U937 cells, read-out: U937 Cell IC50) | inhibition at 1 µM (TNF-α; Homo sapiens) [%] | U937 Cell % inhib @ conc. (TNF-α; @ 1.0 uM) [% @ 1.0 uM]
19 | O=C(NCc1[nH]nc(-c2ccc(F)cc2)c1-c1ccncc1)c1cc(F)cc(F)c1 [Example B-0277] | 6.17 |  | 34 | 
20 | O=C(NCc1[nH]nc(-c2ccc(F)cc2)c1-c1ccncc1)c1c(F)ccc(F)c1F [Example B-0278] | 5.90 |  | 36 | 
21 | O=C(NCc1[nH]nc(-c2ccc(F)cc2)c1-c1ccncc1)c1cccc(Cl)c1Cl [Example B-0279] | 5.86 |  | 33 | 
22 | O=C(NCc1[nH]nc(-c2ccc(F)cc2)c1-c1ccncc1)c1cc(C(F)(F)F)ccc1F [Example B-0281] | 5.13 |  | 24 | 
23 | O=C(NCc1[nH]nc(-c2ccc(F)cc2)c1-c1ccncc1)c1c(F)cccc1C(F)(F)F [Example B-0284] | 7.08 |  | 65 | 
24 | O=C(NCc1[nH]nc(-c2ccc(F)cc2)c1-c1ccncc1)c1cccc(C(F)(F)F)c1F [Example B-0285] | 5.34 |  | 29 | 
25 | O=C(NCc1[nH]nc(-c2ccc(F)cc2)c1-c1ccncc1)c1ccc(F)cc1C(F)(F)F [Example B-0286] | 6.48 |  | 50 | 
26 | O=C(NCc1[nH]nc(-c2ccc(F)cc2)c1-c1ccncc1)c1ccc(F)c(C(F)(F)F)c1 [Example B-0287] | 5.40 |  | 22 | 
27 | O=C(NCc1[nH]nc(-c2ccc(F)cc2)c1-c1ccncc1)c1cc(F)cc(C(F)(F)F)c1 [Example B-0288] | 5.35 |  | 26 | 
28 | O=C(NCc1[nH]nc(-c2ccc(F)cc2)c1-c1ccncc1)c1ccccc1Cl [Example B-0289] | 6.82 |  | 55 | 
29 | O=C(NCc1[nH]nc(-c2ccc(F)cc2)c1-c1ccncc1)c1ccc(Cl)cc1Cl [Example B-0291] | 5.88 |  | 20 | 
30 | O=C(NCc1[nH]nc(-c2ccc(F)cc2)c1-c1ccncc1)c1cc(F)c(F)cc1F [Example B-0296] | 5.10 |  | 36 | 
31 | O=C(NCc1[nH]nc(-c2ccc(F)cc2)c1-c1ccncc1)c1c(F)cccc1F [Example B-0298] | 6.24 |  | 48 | 
32 | O=C(NCc1[nH]nc(-c2ccc(F)cc2)c1-c1ccncc1)c1ccc(F)cc1F [Example B-0299] | 6.06 |  | 54 | 
33 | O=C(NCc1[nH]nc(-c2ccc(F)cc2)c1-c1ccncc1)c1cccc(Cl)c1 [Example B-0300] | 6.11 |  | 32 | 
34 | O=C(NCc1[nH]nc(-c2ccc(F)cc2)c1-c1ccncc1)c1ccccc1Br [Example B-0301] | 6.72 |  | 50 | 
35 | O=C(NCc1[nH]nc(-c2ccc(F)cc2)c1-c1ccncc1)c1ccc(C(F)(F)F)cc1 [Example B-0302] | 5.40 |  | 24 | 
36 | CC(C)C(=O)N[C@H](C)c1[nH]nc(-c2ccc(F)cc2)c1-c1ccncc1 [Example B-0355] | 6.12 |  | 40 | 

More lines, main results first:

Row | pIC50 (human p38 kinase alpha) | pIC50 (TNF-α; Homo sapiens, U-937, TNF production, LPS-stimulated human U937 cells, read-out: U937 Cell IC50) | SMILES | inhibition at 1 µM (TNF-α; Homo sapiens) [%] | U937 Cell % inhib @ conc. (TNF-α; @ 1.0 uM) [% @ 1.0 uM]
37 | 5.84 | 6.18 | C=CCOC(=O)N[C@H](C)c1[nH]nc(-c2ccc(F)cc2)c1-c1ccncc1 [Example B-0357] |  | 
38 | 6.43 |  | CC(=O)OC(C)(C)C(=O)N[C@H](C)c1[nH]nc(-c2ccc(F)cc2)c1-c1ccncc1 [Example B-0358] | 17 | 
39 | 5.80 |  | C[C@@H](NC(=O)C1CCC1)c1[nH]nc(-c2ccc(F)cc2)c1-c1ccncc1 [Example B-0360] | 19 | 
40 | 6.28 |  | C[C@@H](NC(=O)c1cccc(Br)c1)c1[nH]nc(-c2ccc(F)cc2)c1-c1ccncc1 [Example B-0362] | 27 | 
41 | 5.33 |  | C[C@@H](NC(=O)c1ccc(I)cc1)c1[nH]nc(-c2ccc(F)cc2)c1-c1ccncc1 [Example B-0363] | 25 | 
42 | 5.84 |  | C[C@@H](NC(=O)c1ccno1)c1[nH]nc(-c2ccc(F)cc2)c1-c1ccncc1 [Example B-0364] | 27 | 
43 | 6.02 |  | CC(=O)O[C@@H](C)C(=O)N[C@H](C)c1[nH]nc(-c2ccc(F)cc2)c1-c1ccncc1 [Example B-0365] | 27 | 
44 | 6.00 |  | COc1ccccc1C(=O)N[C@H](C)c1[nH]nc(-c2ccc(F)cc2)c1-c1ccncc1 [Example B-0367] | 23 | 
45 | 6.19 |  | CC(C)=CC(=O)N[C@H](C)c1[nH]nc(-c2ccc(F)cc2)c1-c1ccncc1 [Example B-0370] | 28 | 
46 | 6.46 |  | COc1ccc(CC(=O)N[C@H](C)c2[nH]nc(-c3ccc(F)cc3)c2-c2ccncc2)cc1 [Example B-0372] | 29 | 
47 | 6.35 |  | COc1cccc(CC(=O)N[C@H](C)c2[nH]nc(-c3ccc(F)cc3)c2-c2ccncc2)c1 [Example B-0373] | 18 | 
48 | 5.86 |  | Cc1ccc(C(=O)N[C@H](C)c2[nH]nc(-c3ccc(F)cc3)c2-c2ccncc2)cc1 [Example B-0374] |  | 12.0
49 | 6.00 |  | C[C@@H](NC(=O)c1ccccc1)c1[nH]nc(-c2ccc(F)cc2)c1-c1ccncc1 [Example B-0375] | 19 | 
50 | 5.52 |  | C[C@@H](NC(=O)C1CCCC1)c1[nH]nc(-c2ccc(F)cc2)c1-c1ccncc1 [Example B-0376] | 12 | 
51 | 5.89 |  | C[C@@H](NC(=O)c1cccnc1)c1[nH]nc(-c2ccc(F)cc2)c1-c1ccncc1 [Example B-0377] | 36 | 
52 | 6.39 |  | CC(C)COC(=O)N[C@H](C)c1[nH]nc(-c2ccc(F)cc2)c1-c1ccncc1 [Example B-0382] | 32 | 
53 | 5.84 |  | Cc1ccc(S(=O)(=O)N[C@@H](Cc2ccccc2)C(=O)N[C@H](C)c2[nH]nc(-c3ccc(F)cc3)c2-c2ccncc2)cc1 [Example B-0383] | 10 | 
54 | 6.39 |  | CC(C)S(=O)(=O)N[C@H](C)c1[nH]nc(-c2ccc(F)cc2)c1-c1ccncc1 [Example B-0387] | 52 | 
55 | 7.05 |  | C[C@@H](NS(=O)(=O)c1ccc(F)cc1F)c1[nH]nc(-c2ccc(F)cc2)c1-c1ccncc1 [Example B-0390] | 55 | 
56 | 6.07 |  | C[C@@H](NS(=O)(=O)C(F)(F)F)c1[nH]nc(-c2ccc(F)cc2)c1-c1ccncc1 [Example B-0391] | 18 | 
